# Reference: ChEMBL document CHEMBL1128862, “Tricyclic cephems as inhibitors of human leukocyte elastase. thieno[3,4-c]cepham sulfones and pyrrolo[3,4-c]cepham sulfones” (Bioorg Med Chem Lett, 1995)
# Tests used:
# [1] = Hydrolytic stability at 37 degrees Celsius in 50 mM phosphate buffer (20 % v/v MeCN as solubilising vehicle) at pH 7.4; format: physicochemical
# [2] = biological target: T1, Neutrophil elastase (Homo sapiens) (UniProt P08246); test: Inhibitory activity against human leukocyte elastase (HLE) expressed as second order inhibition rate constant
# T1 sequence (whole entry): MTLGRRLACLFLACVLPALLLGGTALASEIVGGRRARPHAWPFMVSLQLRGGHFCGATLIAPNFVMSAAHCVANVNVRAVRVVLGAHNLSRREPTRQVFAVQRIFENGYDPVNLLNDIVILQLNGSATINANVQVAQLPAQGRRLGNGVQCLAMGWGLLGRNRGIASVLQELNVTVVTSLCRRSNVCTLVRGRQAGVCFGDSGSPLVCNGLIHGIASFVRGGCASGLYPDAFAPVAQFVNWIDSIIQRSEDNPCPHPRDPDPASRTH
# [3] = Hydrolytic stability at 37 degrees Centigrade in 50 mM phosphate buffer (2 % v/v MeCN as solubilising vehicle) at pH 7.4; format: physicochemical
SMILES,half-life [1] [days],k on [2] [M⁻¹ s⁻¹],half-life [3] [days]
CO[C@H]1C(=O)N2c3c(cn(-c4ccc([N+](=O)[O-])cc4)c3-c3ccccc3)CS(=O)(=O)[C@H]12,> 125,11000,
CO[C@H]1C(=O)N2c3c(cn(C(=O)C(C)(C)C)c3-c3ccccc3)CS(=O)(=O)[C@H]12,,2100,33.3
CO[C@H]1C(=O)N2c3c(csc3-c3ccccc3)CS(=O)(=O)[C@H]12,,270,1.42

# Now from value to molecule:
half-life [1] [days],k on [2] [M⁻¹ s⁻¹],half-life [3] [days],SMILES
,2500,23.8,CO[C@H]1C(=O)N2c3c(c[nH]c3-c3ccccc3)CS(=O)(=O)[C@H]12
,1300,21.2,CO[C@H]1C(=O)N2c3c(c[nH]c3C(C)(C)C)CS(=O)(=O)[C@H]12
,80,9.17,CO[C@H]1C(=O)N2c3c(csc3C(C)(C)C)CS(=O)(=O)[C@H]12
